# Results published in US20210254056A1, “IDENTIFICATION AND TARGETED MODULATION OF GENE SIGNALING NETWORKS” (CAMP4 THERAPEUTICS CORPORATION, priority 2017, published 2021).
# System: hepatocytes
# Experiment: RNA-seq of hepatocytes treated with Phase III failure compounds
# Details: hepatocytes
# Description: RNA-seq was performed to determine the effects of the compounds on hepatocytes.
# Significance was determined by the criteria of FPKM≥0.5, a log 2(fold-change)≥1, and a […].
smiles,measurement,setting,value
"COc1nc(N)nc2c1ncn2[C@@H]1O[C@H](COP(=O)(N[C@@H](C)C(=O)OCC(C)(C)C)Oc2cccc3ccccc23)[C@@H](O)[C@@]1(C)O (some centres unmarked) [Bms-986094 (inx-189), Bms-986094]",significant modulation of expression of disease genes,"RNA-seq, q≤0.05, genes in the value or listed in the block",significantly (q≤0.05) modulate expression
same,"A1BG expression, RNA-seq result",gene A1BG,−0.1
same,"AARS2 expression, RNA-seq result",gene AARS2,0.13
same,"AASS expression, RNA-seq result",gene AASS,−0.77
same,"ABAT expression, RNA-seq result",gene ABAT,−1.42
same,"ABCA1 expression, RNA-seq result",gene ABCA1,−0.43
same,"ABCB4 expression, RNA-seq result",gene ABCB4,−0.43
same,"ABCB11 expression, RNA-seq result",gene ABCB11,−0.76
same,"ABCC2 expression, RNA-seq result",gene ABCC2,−1.34
same,"ABCC3 expression, RNA-seq result",gene ABCC3,−0.96
same,"ABCC6 expression, RNA-seq result",gene ABCC6,−1.45
same,"ABCD1 expression, RNA-seq result",gene ABCD1,0.08
same,"ABCD3 expression, RNA-seq result",gene ABCD3,−0.4
same,"ABCG5 expression, RNA-seq result",gene ABCG5,−0.11
same,"ABCG8 expression, RNA-seq result",gene ABCG8,−0.11
same,"ABHD5 expression, RNA-seq result",gene ABHD5,0.25
same,"ACACA expression, RNA-seq result",gene ACACA,−2.09
same,"ACACB expression, RNA-seq result",gene ACACB,−1.86
same,"ACAD9 expression, RNA-seq result",gene ACAD9,−0.83
same,"ACADSB expression, RNA-seq result",gene ACADSB,−0.04
same,"ACADVL expression, RNA-seq result",gene ACADVL,0.11
same,"ACOT8 expression, RNA-seq result",gene ACOT8,−0.33
same,"ACOX2 expression, RNA-seq result",gene ACOX2,−0.97
same,"ACOX3 expression, RNA-seq result",gene ACOX3,−1.75
same,"ACSF3 expression, RNA-seq result",gene ACSF3,−0.6
same,"ACSL1 expression, RNA-seq result",gene ACSL1,−0.12
same,"ACSL3 expression, RNA-seq result",gene ACSL3,0.16
same,"ACTG2 expression, RNA-seq result",gene ACTG2,−0.13
same,"ACTN1 expression, RNA-seq result",gene ACTN1,−2.21
same,"ADA expression, RNA-seq result",gene ADA,−0.72
same,"ADCK3 expression, RNA-seq result",gene ADCK3,0.18
same,"ADK expression, RNA-seq result",gene ADK,−1.7
same,"ADSL expression, RNA-seq result",gene ADSL,−0.96
same,"AFP expression, RNA-seq result",gene AFP,−0.16
same,"AGK expression, RNA-seq result",gene AGK,−0.43
same,"AGL expression, RNA-seq result",gene AGL,−0.97
same,"AGPAT2 expression, RNA-seq result",gene AGPAT2,−1.09
same,"AGPS expression, RNA-seq result",gene AGPS,−1.61
same,"AGT expression, RNA-seq result",gene AGT,0.27
same,"AGTR1 expression, RNA-seq result",gene AGTR1,−0.07
same,"AGXT expression, RNA-seq result",gene AGXT,−0.66
same,"AHI1 expression, RNA-seq result",gene AHI1,−0.61
same,"AHSG expression, RNA-seq result",gene AHSG,−0.32
same,"AK1 expression, RNA-seq result",gene AK1,0.62
same,"AKR1C1 expression, RNA-seq result",gene AKR1C1,−0.96
same,"AKR1C2 expression, RNA-seq result",gene AKR1C2,−1.2
same,"AKR1C4 expression, RNA-seq result",gene AKR1C4,−1.68
same,"AKR1D1 expression, RNA-seq result",gene AKR1D1,0.17
same,"ALAD expression, RNA-seq result",gene ALAD,−0.69
same,"ALAS1 expression, RNA-seq result",gene ALAS1,0.11
same,"ALDH1B1 expression, RNA-seq result",gene ALDH1B1,−0.86
same,"ALDH2 expression, RNA-seq result",gene ALDH2,−0.04
same,"ALDH6A1 expression, RNA-seq result",gene ALDH6A1,−0.08
same,"ALDOA expression, RNA-seq result",gene ALDOA,−0.48
same,"ALDOB expression, RNA-seq result",gene ALDOB,−0.27
same,"ALG12 expression, RNA-seq result",gene ALG12,−0.76
same,"ALMS1 expression, RNA-seq result",gene ALMS1,−1.35
same,"ALPL expression, RNA-seq result",gene ALPL,−1.05
same,"AMACR expression, RNA-seq result",gene AMACR,0.28
same,"AMPD3 expression, RNA-seq result",gene AMPD3,0.57
same,"AMT expression, RNA-seq result",gene AMT,−0.61
same,"ANGPTL3 expression, RNA-seq result",gene ANGPTL3,−0.73
same,"ANKS4B expression, RNA-seq result",gene ANKS4B,−0.39
same,"ANKS6 expression, RNA-seq result",gene ANKS6,−0.13
same,"ANPEP expression, RNA-seq result",gene ANPEP,−0.47
same,"AOC2 expression, RNA-seq result",gene AOC2,0.32
same,"AP3B1 expression, RNA-seq result",gene AP3B1,−1.36
same,"APC expression, RNA-seq result",gene APC,−0.04
same,"APOA1 expression, RNA-seq result",gene APOA1,−0.05
same,"APOA2 expression, RNA-seq result",gene APOA2,0.31
same,"APOA5 expression, RNA-seq result",gene APOA5,−0.18
same,"APOB expression, RNA-seq result",gene APOB,−0.78
same,"APOC2 expression, RNA-seq result",gene APOC2,0
same,"APOC3 expression, RNA-seq result",gene APOC3,0.42
same,"APOE expression, RNA-seq result",gene APOE,−0.56
same,"APRT expression, RNA-seq result",gene APRT,−0.42
same,"AQP7 expression, RNA-seq result",gene AQP7,−0.35
same,"AQP9 expression, RNA-seq result",gene AQP9,−0.05
same,"ARG1 expression, RNA-seq result",gene ARG1,−1.7
same,"ARG2 expression, RNA-seq result",gene ARG2,0.62
same,"ARL13B expression, RNA-seq result",gene ARL13B,−0.67
same,"ARSA expression, RNA-seq result",gene ARSA,0.27
same,"ARSB expression, RNA-seq result",gene ARSB,−0.25
same,"ASL expression, RNA-seq result",gene ASL,−0.24
same,"ASNS expression, RNA-seq result",gene ASNS,1.61
same,"ASPA expression, RNA-seq result",gene ASPA,1.55
same,"ASXL1 expression, RNA-seq result",gene ASXL1,−1.04
same,"ATG7 expression, RNA-seq result",gene ATG7,−1.54
same,"ATIC expression, RNA-seq result",gene ATIC,−0.74
same,"ATM expression, RNA-seq result",gene ATM,−0.5
same,"ATP7A expression, RNA-seq result",gene ATP7A,−0.03
same,"ATP7B expression, RNA-seq result",gene ATP7B,−0.8
same,"ATP8B1 expression, RNA-seq result",gene ATP8B1,−2.3
same,"B2M expression, RNA-seq result",gene B2M,0.23
same,"B9D2 expression, RNA-seq result",gene B9D2,−0.83
same,"BAAT expression, RNA-seq result",gene BAAT,−1.93
same,"BBOX1 expression, RNA-seq result",gene BBOX1,−0.77
same,"BBS10 expression, RNA-seq result",gene BBS10,0.59
same,"BCHE expression, RNA-seq result",gene BCHE,−0.67
same,"BCKDHB expression, RNA-seq result",gene BCKDHB,−1.21
same,"BCKDK expression, RNA-seq result",gene BCKDK,−0.42
same,"BCO1 expression, RNA-seq result",gene BCO1,0.72
same,"BCR expression, RNA-seq result",gene BCR,−1.54
same,"BLNK expression, RNA-seq result",gene BLNK,1.31
same,"BLOC1S3 expression, RNA-seq result",gene BLOC1S3,0.01
same,"BMPR1A expression, RNA-seq result",gene BMPR1A,−0.9
same,"BRAF expression, RNA-seq result",gene BRAF,−0.44
same,"BSCL2 expression, RNA-seq result",gene BSCL2,0.07
same,"BTD expression, RNA-seq result",gene BTD,−0.53
same,"C4A expression, RNA-seq result",gene C4A,0.29
same,"C9 expression, RNA-seq result",gene C9,0.55
same,"C10orf10 expression, RNA-seq result",gene C10orf10,0.23
same,"C10orf11 expression, RNA-seq result",gene C10orf11,−2.08
same,"C15orf41 expression, RNA-seq result",gene C15orf41,−1.68
same,"CA2 expression, RNA-seq result",gene CA2,0.9
same,"CA5A expression, RNA-seq result",gene CA5A,−1.34
same,"CA12 expression, RNA-seq result",gene CA12,0.58
same,"CAV1 expression, RNA-seq result",gene CAV1,−0.74
same,"CCND1 expression, RNA-seq result",gene CCND1,−0.78
same,"CD46 expression, RNA-seq result",gene CD46,0.43
same,"CD81 expression, RNA-seq result",gene CD81,0.03
same,"CD320 expression, RNA-seq result",gene CD320,−0.96
same,"CDAN1 expression, RNA-seq result",gene CDAN1,0.38
same,"CDH1 expression, RNA-seq result",gene CDH1,−1.79
same,"CEP19 expression, RNA-seq result",gene CEP19,−0.28
same,"CEP83 expression, RNA-seq result",gene CEP83,−0.39
same,"CEP164 expression, RNA-seq result",gene CEP164,0.23
same,"CEP290 expression, RNA-seq result",gene CEP290,0.21
same,"CFB expression, RNA-seq result",gene CFB,0.29
same,"CFHR2 expression, RNA-seq result",gene CFHR2,0.7
same,"CHRM3 expression, RNA-seq result",gene CHRM3,−2.02
same,"CIDEC expression, RNA-seq result",gene CIDEC,−0.6
same,"CLDN1 expression, RNA-seq result",gene CLDN1,−0.83
same,"COG1 expression, RNA-seq result",gene COG1,0.5
